Source: PubChem BioAssay AID1963967 (Molecular Pharmacology Branch, DTP, NCI, 2024)

Tested on: 855422-203-R-J1-PDC spheroids with HUVEC/MSC, viability
Test: Anticancer human tumor 855422-203-R-J1-PDC patient-derived bladder carcinoma cell line growth inhibition [PI3K]
Conditions: for IC50: curve of first compound; for viability, T/C: stronger effect = lower value
Summary of the method: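 High-throughput combination screen: PI3K inhibitors crossed with targeted small molecules on complex spheroids of tumor cells, HUVEC and MSCs at 37 degrees C, 5% CO2. Top concentration was at or near clinical Cmax (otherwise 10 microM), with half-log decrements.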

[1] = second compound 0.00316 µM, first compound 0.0316 µM
[2] = second compound 0.00316 µM, first compound 0.1 µM
[3] = second compound 0.01 µM, first compound 0.0316 µM
[4] = second compound 0.01 µM, first compound 0.1 µM
[5] = second compound 0.0316 µM, first compound 0.0316 µM
[6] = second compound 0.0316 µM, first compound 0.1 µM
[7] = second compound 0.1 µM, first compound 0.0316 µM
[8] = second compound 0.1 µM, first compound 0.1 µM
[9] = second compound 0.316 µM, first compound 0.0316 µM
[10] = second compound 0.316 µM, first compound 0.1 µM
[11] = second compound 1 µM, first compound 0.0316 µM
[12] = second compound 1 µM, first compound 0.1 µM
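Note: agents incubated with spheroids for one week before read-out.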
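Throughout, for viability, T/C: 100% = DMSO vehicle-treated control wells.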

CC(C)n1nc(-c2ccc3oc(N)nc3c2)c2c(N)ncnc21 + COc1c(OCCCN2CCOCC2)ccc2c3n(c(=NC(=O)c4cnc(N)nc4)nc12)CCN3
IC50 (second compound 0.00316 µM): 0.047 µM | IC50 (second compound 0.01 µM): 0.0313 µM | IC50 (second compound 0.0316 µM): 0.0106 µM | IC50 (second compound 0.1 µM): < 0.000316 µM | IC50 (second compound 0.316 µM): < 0.000316 µM | IC50 (second compound 1 µM): < 0.000316 µM | viability, T/C (second compound 0.00316 µM, first compound 0.000316 µM): 106% | viability, T/C (second compound 0.00316 µM, first compound 0.001 µM): 88.3% | viability, T/C (second compound 0.00316 µM, first compound 0.00316 µM): 94.4% | viability, T/C (second compound 0.00316 µM, first compound 0.01 µM): 81.5% | viability, T/C [1]: 72.6% | viability, T/C [2]: 14.6% | viability, T/C (second compound 0.01 µM, first compound 0.000316 µM): 89.6% | viability, T/C (second compound 0.01 µM, first compound 0.001 µM): 87.7% | viability, T/C (second compound 0.01 µM, first compound 0.00316 µM): 90.3% | viability, T/C (second compound 0.01 µM, first compound 0.01 µM): 86.5% | viability, T/C [3]: 49.7% | viability, T/C [4]: 10.4% | viability, T/C (second compound 0.0316 µM, first compound 0.000316 µM): 72.1% | viability, T/C (second compound 0.0316 µM, first compound 0.001 µM): 68.8% | viability, T/C (second compound 0.0316 µM, first compound 0.00316 µM): 56.8% | viability, T/C (second compound 0.0316 µM, first compound 0.01 µM): 53% | viability, T/C [5]: 34.5% | viability, T/C [6]: 7.16% | viability, T/C (second compound 0.1 µM, first compound 0.000316 µM): 33.4% | viability, T/C (second compound 0.1 µM, first compound 0.001 µM): 30.8% | viability, T/C (second compound 0.1 µM, first compound 0.00316 µM): 33.1% | viability, T/C (second compound 0.1 µM, first compound 0.01 µM): 29.3% | viability, T/C [7]: 19.1% | viability, T/C [8]: 4.35% | viability, T/C (second compound 0.316 µM, first compound 0.000316 µM): 11.2% | viability, T/C (second compound 0.316 µM, first compound 0.001 µM): 10.2% | viability, T/C (second compound 0.316 µM, first compound 0.00316 µM): 9.76% | viability, T/C (second compound 0.316 µM, first compound 0.01 µM): 9.27% | viability, T/C [9]: 5.64% | viability, T/C [10]: 2.5% | viability, T/C (second compound 1 µM, first compound 0.000316 µM): 5.23% | viability, T/C (second compound 1 µM, first compound 0.001 µM): 5.41% | viability, T/C (second compound 1 µM, first compound 0.00316 µM): 4.21% | viability, T/C (second compound 1 µM, first compound 0.01 µM): 4.46% | viability, T/C [11]: 3.47% | viability, T/C [12]: 1.3%

C=CC(=O)N1CCN(c2nc(=O)n(-c3c(C)ccnc3C(C)C)c3nc(-c4c(O)cccc4F)c(F)cc23)C(C)C1 (centres undefined) + CC(Nc1ccc2c(c1)OCCn1cc(N3C(=O)OCC3C(F)F)nc1-2)C(N)=O
IC50 (second compound 0.00316 µM): > 10 µM | IC50 (second compound 0.01 µM): > 10 µM | IC50 (second compound 0.0316 µM): > 10 µM | IC50 (second compound 0.1 µM): > 10 µM | IC50 (second compound 0.316 µM): > 10 µM | IC50 (second compound 1 µM): < 0.0316 µM | viability, T/C [1]: 80.4% | viability, T/C [2]: 95.2% | viability, T/C (second compound 0.00316 µM, first compound 0.316 µM): 116% | viability, T/C (second compound 0.00316 µM, first compound 1 µM): 101% | viability, T/C (second compound 0.00316 µM, first compound 3.16 µM): 122% | viability, T/C (second compound 0.00316 µM, first compound 10 µM): 121% | viability, T/C [3]: 96.1% | viability, T/C [4]: 98.5% | viability, T/C (second compound 0.01 µM, first compound 0.316 µM): 121% | viability, T/C (second compound 0.01 µM, first compound 1 µM): 99.5% | viability, T/C (second compound 0.01 µM, first compound 3.16 µM): 119% | viability, T/C (second compound 0.01 µM, first compound 10 µM): 120% | viability, T/C [5]: 91.5% | viability, T/C [6]: 81.1% | viability, T/C (second compound 0.0316 µM, first compound 0.316 µM): 96.7% | viability, T/C (second compound 0.0316 µM, first compound 1 µM): 90.6% | viability, T/C (second compound 0.0316 µM, first compound 3.16 µM): 99.6% | viability, T/C (second compound 0.0316 µM, first compound 10 µM): 99.5% | viability, T/C [7]: 80.2% | viability, T/C [8]: 66.1% | viability, T/C (second compound 0.1 µM, first compound 0.316 µM): 75.5% | viability, T/C (second compound 0.1 µM, first compound 1 µM): 89% | viability, T/C (second compound 0.1 µM, first compound 3.16 µM): 80.8% | viability, T/C (second compound 0.1 µM, first compound 10 µM): 93.4% | viability, T/C [9]: 54.5% | viability, T/C [10]: 54.4% | viability, T/C (second compound 0.316 µM, first compound 0.316 µM): 53.8% | viability, T/C (second compound 0.316 µM, first compound 1 µM): 75% | viability, T/C (second compound 0.316 µM, first compound 3.16 µM): 73.9% | viability, T/C (second compound 0.316 µM, first compound 10 µM): 68.8% | viability, T/C [11]: 39% | viability, T/C [12]: 30.9% | viability, T/C (second compound 1 µM, first compound 0.316 µM): 39.2% | viability, T/C (second compound 1 µM, first compound 1 µM): 44% | viability, T/C (second compound 1 µM, first compound 3.16 µM): 50.6% | viability, T/C (second compound 1 µM, first compound 10 µM): 38.7%
